Results on 20 molecules are retold here after patent US8354443B2, “Cyclopropane indolinone derivatives” (Hoffmann-La Roche Inc., priority 2009, dated 2013).

The test system of this assay is recombinant AMPK proteins (α1β1γ1, α2β1γ1, α1(1-335), α1(1-394) or α2(1-394)). In words: Scintillation Proximity Assay (AMPK activation). The class given is biochemical, human. Conditions: effective concentration of activator for 50% of maximal enzyme activity; 2 hr at 30° C.; AMPK form not specified. From the text:
Recombinant human AMPK α1β1γ1, α2β1γ1 or AMPK a subunit truncations α1 (1-335), α1 (1-394) and α2(1-394) were constructed, expressed and purified as described previously (Pang, T., Zhang, Z. S., Gu, M., Qiu, B. Y., Yu, L. F., Cao, P. R., Shao, W., Su, M. B., Li, J. Y., Nan, F. J., and Li, J. (2008) or purchased from Invitrogen (San Diego, Calif., U.S.A.). Rat liver AMPK heterotrimer enzyme was obtained from Upstate (Billerica, Mass., U.S.A.).
Before the Scintillation Proximity Assay (SPA) assay, 200 nM recombinant AMPK proteins (α1β1γ1, α2β1γ1, α1(1-335), α1(1-394) or α2(1-394)) were fully phosphorylated as described previously (Pang et al., 2008). SPA reactions were performed in 96-well plates at a final volume of 50 μl containing 20 mM Tris-HCl pH 7.5, 5 mM MgCl2, 1 mM DTT, 2 μM biotin-SAMS, 2 μM ATP, 0.2 μCi/well [γ-^33P]ATP, and various amount of activator. Reactions were initiated by the addition of 50 nM recombinant AMPK proteins to the reaction solutions and incubated at 30° C. for 2 hr. After that, reactions were terminated by the addition of 40 μl stop solution containing 80 μg streptavidin-coated SPA beads per well, 50 mM EDTA, 0.1% Triton X-100 in PBS, pH 7.5 and incubated for 1 hr. Finally, a 160 μl suspension solution containing 2.4 M CsCl, 50 mM EDTA, and 0.1% Triton X-100 in PBS (pH 7.5) was added to the reaction solution to suspend SPA beads completely. SPA signals were determined with a Wallac MicroBeta plate counter (PerkinElmer) 30 min later for calculation of the amount of product formed. The amount of products formed in 2 hr was plotted against activator concentrations to determine the effective concentration of the activator (EC50) required for 50% of maximal enzyme activity.
(In general: In a scintillation proximity assay essentially only radioactivity close to the scintillant gives light.)

SMILES strings stand for the structures. pEC50: −log10 of the molar value.

A word on the pEC50: it is −log10 of the EC50, conventionally taken in molar units.

With `O=C(O)c1cccc(CN2C(=O)[C@]3(C[C@@H]3c3ccccc3F)c3ccccc32)c1` (mixture of isomers) [Example 8, (1S,2R) and (1R,2S)-3-((2-(2-fluorophenyl)-2′-oxospiro[cyclopropane-1,3′-indoline]-1′-yl)methyl)benzoic acid], the pEC50 is 5.56.
Regarding `O=C(O)c1cccc(CN2C(=O)[C@]3(C[C@H]3c3ccccc3F)c3ccccc32)c1` (mixture of isomers) [Example 9, (1S,2S) and (1R,2R)-3-((2-(2-fluorophenyl)-2′-oxospiro[cyclopropane-1,3′-indoline]-1′-yl)methyl)benzoic acid], the negative-log EC50 (pEC50) was 5.92.
Regarding `CN(C)[C@H]1CCN(CCN2C(=O)[C@]3(C[C@@H]3c3ccc(Cl)cc3)c3ccccc32)C1` (mixture of isomers) [Example 76, (1S,2R)-2-(4-chlorophenyl)-1′-(2-((S)-3-(dimethylamino)pyrrolidin-1-yl)ethyl)spiro[cyclopropane-1,3′-indolin]-2′-one and (1R,2S)-2-(4-chlorophenyl)-1′-(2-((S)-3-(dimethylamino)pyrrolidin-1-yl)ethyl)spiro[cyclopropane-1,3′-indolin]-2′-one], the negative logarithm of the EC50 (pEC50) was 5.96.
Consider `CN(C)[C@@H]1CCN(CCN2C(=O)[C@@]3(C[C@H]3c3ccc(Cl)cc3)c3ccccc32)C1` (mixture of isomers) [Example 77, (1S,2R)-2-(4-chlorophenyl)-1′-(2-((R)-3-(dimethylamino)pyrrolidin-1-yl)ethyl)spiro[cyclopropane-1,3′-indolin]-2′-one and (1R,2S)-2-(4-chlorophenyl)-1′-(2-((R)-3-(dimethylamino)pyrrolidin-1-yl)ethyl)spiro[cyclopropane-1,3′-indolin]-2′-one], for which the pEC50 is 5.66.
Take `CC1CN(CCNCCN2C(=O)[C@]3(C[C@@H]3c3ccc(Cl)cc3)c3ccccc32)CC(C)O1` (mixture of isomers) [Example 130, (1S,2R) and (1R,2S)-2-(4-chlorophenyl)-1′-(2-(2-(2,6-dimethylmorpholino)ethylamino)ethyl) Spiro[cyclopropane-1,3′-indolin]-2′-one]: the pEC50 was 5.96.
Consider `O=C(O)c1cccc(CN2C(=O)[C@@]3(C[C@H]3c3ccc(Cl)cc3)c3ccccc32)c1` (racemic) [Example 1, (1R,2S) and (1S,2R)-3-((2-(4-chlorophenyl)-2′-oxospiro[cyclopropane-1,3′-indoline]-1′-yl)methyl)benzoic acid], for which the pEC50 was 5.59.
For the molecule `O=C(O)c1cccc(CN2C(=O)[C@@]3(C[C@@H]3c3ccc(Cl)cc3)c3ccccc32)c1` (racemic) [Example 2, (1R,2R) and (1S,2S)-3-((2-(4-chlorophenyl)-2′-oxospiro[cyclopropane-1,3′-indoline]-1′-yl)methyl)benzoic acid], the pEC50 is 6.02.
The same measure for `O=C(O)c1cccc(CN2C(=O)[C@]3(C[C@@H]3c3cccc(Cl)c3)c3ccccc32)c1` (racemic) [Example 3, (1S,2R) and (1R,2S)-3-((2-(3-chlorophenyl)-2′-oxospiro[cyclopropane-1,3′-indoline]-1′-yl)methyl)benzoic acid]: 5.53; for `N#Cc1ccc([C@H]2C[C@]23C(=O)N(Cc2cccc(C(=O)O)c2)c2ccccc23)cc1` (racemic) [Example 5, (1S,2R) and (1R,2S)-3-((2-(4-cyanophenyl)-2′-oxospiro[cyclopropane-1,3′-indoline]-1′-yl)methyl)benzoic acid]: 5.28; for `O=C(O)c1cc(CN2C(=O)[C@]3(C[C@@H]3c3ccc(Cl)cc3)c3ccccc32)ccc1Cl` (racemic) [Example 6, (1S,2R) and (1R,2S)-2-chloro-5-((2-(4-chlorophenyl)-2′-oxospiro[cyclopropane-1,3′-indoline]-1′-yl)methyl)benzoic acid]: 5.15.
Turning to `CS(=O)(=O)c1ccc([C@H]2C[C@]23C(=O)N(Cc2cccc(C(=O)O)c2)c2ccccc23)cc1` (racemic) [Example 7, (1S,2R) and (1R,2S)-3-((2-(4-(methylsulfonyl)phenyl)-2′-oxospiro[cyclopropane-1,3′-indoline]-1′-yl)methyl)benzoic acid], the pEC50 is 4.96.
The same measure for `O=C(O)c1cccc(CN2C(=O)[C@]3(C[C@@H]3c3cccc(F)c3)c3ccccc32)c1` (racemic) [Example 10, (1S,2R) and (1R,2S)-3-((2-(3-fluorophenyl)-2′-oxospiro[cyclopropane-1,3′-indoline]-1′-yl)methyl)benzoic acid]: 5.69.
In the case of `O=C(O)c1cccc(CN2C(=O)[C@]3(C[C@H]3c3cccc(F)c3)c3ccccc32)c1` (racemic) [Example 11, (1S,2S) and (1R,2R)-3-((2-(3-fluorophenyl)-2′-oxospiro[cyclopropane-1,3′-indoline]-1′-yl)methyl)benzoic acid], the pEC50 is 5.69.
With `O=C(O)c1cccc(CN2C(=O)[C@]3(C[C@H]3c3ccccc3C(F)(F)F)c3ccccc32)c1` (racemic) [Example 12, (1S,2S) and (1R,2R)-3-((2′-oxo-2-(2-(trifluoromethyl)phenyl)-spiro[cyclopropane-1,3′-indoline]-1′-yl)methyl)benzoic acid], the pEC50 was 5.63.
As to `O=C(O)c1cccc(CN2C(=O)[C@@]3(C[C@@H]3c3ccc(Cl)cc3)c3cc(Cl)ccc32)c1` (racemic) [Example 14, (1R,2R) and (1S,2S)-3-((5′-chloro-2-(4-chlorophenyl)-2′-oxospiro[cyclopropane-1,3′-indoline]-1′-yl)methyl)benzoic acid], the negative-log EC50 (pEC50) is 5.69.
In the case of `O=C(O)c1cccc(CN2C(=O)[C@@]3(C[C@@H]3c3ccc(Cl)cc3)c3cc(Br)ccc32)c1` (racemic) [Example 15, (1R,2R) and (1S,2S)-3-((5′-bromo-2-(4-chlorophenyl)-2′-oxospiro[cyclopropane-1,3′-indoline]-1′-yl)methyl)benzoic acid], the pEC50 is 5.61.
Regarding `O=C(O)c1cccc(CN2C(=O)[C@]3(C[C@@H]3c3ccc(Cl)cc3)c3cc(Br)ccc32)c1` (racemic) [Example 16, (1S,2R) and (1R,2S)-3-((5′-bromo-2-(4-chlorophenyl)-2′-oxospiro[cyclopropane-1,3′-indoline]-1′-yl)methyl)benzoic acid], the pEC50 is 5.57.
Consider `N#Cc1ccc([C@@H]2C[C@]23C(=O)N(Cc2cccc(C(=O)O)c2)c2ccccc23)cc1` (racemic) [Example 17, (1S,2S) and (1R,2R)-3-((2-(4-cyanophenyl)-2′-oxospiro[cyclopropane-1,3′-indoline]-1′-yl)methyl)benzoic acid], for which the negative-log EC50 (pEC50) is 5.79.
Turning to `COc1cccc([C@H]2C[C@]23C(=O)N(Cc2cccc(C(=O)O)c2)c2ccccc23)c1` (racemic) [Example 18, (1S,2R) and (1R,2S)-3-((2-(3-methoxyphenyl)-2′-oxospiro[cyclopropane-1,3′-indoline]-1′-yl)methyl)benzoic acid], the negative-log EC50 (pEC50) is 5.78.
As for `COc1cccc([C@@H]2C[C@]23C(=O)N(Cc2cccc(C(=O)O)c2)c2ccccc23)c1` (racemic) [Example 19, (1S,2S) and (1R,2R)-3-((2-(3-methoxyphenyl)-2′-oxospiro[cyclopropane-1,3′-indoline]-1′-yl)methyl)benzoic acid], the negative-log EC50 (pEC50) is 5.85.
